SMILES strings stand for the structures. In brackets after ≈: the same amount, converted by molar mass.

Type in all cases: functional
The subject of one assay is A549. Description: Cytotoxicity against human A549 cells after 6 days by MTT assay. As to conditions: A549, 144 h, read-out: ED50 (the source's name). (In general: Tetrazolium dyes change colour on reduction, which living cells bring about.)
A further assay concerns P388. Description: Cytotoxicity against mouse P388 cells after 3 days by MTT assay. As to conditions: P388, 72 h, read-out: ED50 (the source's name).
The next assay deals with HT-29. Description: Cytotoxicity against human HT-29 cells after 6 days by MTT assay. As to conditions: HT-29, 144 h, read-out: ED50 (the source's name).
The next assay relates to KB. Description: Cytotoxicity against human KB cells after 3 days by MTT assay. As to conditions: 72 h, read-out: ED50 (the source's name).

On to `COc1cc(/C=C/C(=O)N2CCC=CC2=O)cc2c1OCO2`, for which the EC50 with A549 was 2.57 µg/mL (≈ 8.53 µM); with P388, 0.43 µg/mL (≈ 1.43 µM); in the assay with HT-29, 2.15 µg/mL (≈ 7.14 µM); in the assay with KB it was 2.62 µg/mL (≈ 8.7 µM).

`COc1cc(C2C(C(=O)N3CCC=CC3=O)[C@H](c3cc(OC)c(OC)c(OC)c3)[C@@H]2C(=O)N2CCC=CC2=O)cc(OC)c1OC` (stereo partly specified) [PIPLARTINE DIMER A]: the EC50 with A549 came out at 2.21 µg/mL (≈ 3.48 µM); in the assay with P388 it was 3.06 µg/mL (≈ 4.82 µM); in the assay on HT-29 it was 2.49 µg/mL (≈ 3.92 µM); in the assay with KB, 3.9 µg/mL (≈ 6.14 µM).

As to `COc1cc(CCC(=O)N2CCC=CC2=O)cc2c1OCO2`, the EC50 in the assay with A549 came out at 5.76 µg/mL (≈ 19 µM); with P388, 2.21 µg/mL (≈ 7.29 µM); in the assay on HT-29, 3.8 µg/mL (≈ 12.5 µM); in the assay with KB it was 4.99 µg/mL (≈ 16.5 µM).

In the case of `COc1cc(/C=C/C(=O)N2CCC=CC2=O)cc(OC)c1OC` [PIPLARTINE], the EC50 amounted to 0.6 µg/mL (≈ 1.89 µM) with A549, 0.9 µg/mL (≈ 2.84 µM) in the assay on P388, 0.45 µg/mL (≈ 1.42 µM) in the assay on HT-29 and 1.8 µg/mL (≈ 5.67 µM) with KB.

The record behind these values is ChEMBL document CHEMBL1158932, “Cytotoxic pyridone alkaloids from the leaves of Piper aborescens” (1990).
